Laboratory results reported in patent US7138361B2, “Herbicidal heterocycles” (E. I. du Pont de Nemours and Company, priority 2000, dated 2006).

Columns and labels:
Assay type in all cases: in vivo
[1] = system: morningglory (Ipomoea hederacea); experiment: Test C preemergence; conditions: for Plant response rating (0 to 100), Morningglory: Rate 500 g/ha, visual evaluation after 12 to 14 days
How it was run: (§1)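 Each compound was dissolved in a non-phytotoxic solvent system containing a surfactant and sprayed either on freshly planted seeds (preemergence) or on young plants, 2 to 18 cm high (postemergence). Ratings after 12 to 14 greenhouse days ran from 0, no effect, to 100, complete control.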

kochia (Kochia scoparia) = experiment: Test C preemergence; conditions: for Plant response rating (0 to 100), Kochia: Rate 500 g/ha, visual evaluation after 12 to 14 days
How it was run: as §1

[2] = system: yellow nutsedge (Cyperus esculentus); experiment: Test C preemergence; conditions: for Plant response rating (0 to 100), Nutsedge: Rate 500 g/ha, visual evaluation after 12 to 14 days
How it was run: as §1

[3] = system: giant foxtail (Setaria faberii); experiment: Test C preemergence; conditions: for Plant response rating (0 to 100), Foxtail, Giant: Rate 500 g/ha, visual evaluation after 12 to 14 days
How it was run: as §1

[4] = system: johnsongrass (Sorghum halepense); experiment: Test C preemergence; conditions: for Plant response rating (0 to 100), Johnsongrass: Rate 500 g/ha, visual evaluation after 12 to 14 days
How it was run: as §1

[5] = system: velvetleaf (Abutilon theophrasti); experiment: Test C preemergence; conditions: for Plant response rating (0 to 100), Velvetleaf: Rate 500 g/ha, visual evaluation after 12 to 14 days
How it was run: as §1

corn (Zea mays) [6] = experiment: Test C preemergence; conditions: for Plant response rating (0 to 100), Corn: Rate 500 g/ha, visual evaluation after 12 to 14 days
How it was run: as §1

[7] = system: bermudagrass (Cynodon dactylon); experiment: Test C preemergence; conditions: for Plant response rating (0 to 100 where 0 is no effect and 100 is complete control), Bermudagrass: Rate 500 g/ha, visual evaluation after 12 to 14 days
How it was run: as §1

Sunflower [8] = experiment: Test C preemergence; conditions: Rate 125 g/ha; scale 0 to 100, 0 no effect, 100 complete control
Sunflower [9] = experiment: Test C preemergence; conditions: Rate 500 g/ha, visual evaluation after 12 to 14 days
[10] = system: lambsquarters (Chenopodium album); experiment: Test B postemergence; conditions: Rate 125 g/ha, scale 0 to 100, 0 no effect, 100 complete control
How it was run: (§2)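 Pre: seeded pots sprayed, chemical in non-phytotoxic solvent/surfactant mix. Post: plants 2–18 cm, 1–4 leaf, same formulation. Greenhouse 13–15 d; visual % control vs untreated, 0–100 scale.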

[11] = system: barnyardgrass (Echinochloa crus-galli); experiment: Test B postemergence
How it was run: as §2

[12] = system: crabgrass (Digitaria sanguinalis); experiment: Test B postemergence; conditions: Rate 125 g/ha, scale 0 to 100, 0 no effect, 100 complete control
How it was run: as §2

[13] = system: giant foxtail (Setaria faberii); experiment: Test B postemergence; conditions: Rate 125 g/ha, scale 0 to 100, 0 no effect, 100 complete control
How it was run: as §2

wild oat (Avena fatua) = experiment: Test B postemergence; conditions: Rate 125 g/ha, scale 0 to 100, 0 no effect, 100 complete control
How it was run: as §2

[14] = system: morning glory (Ipomoea hederacea); experiment: Test B postemergence; conditions: Rate 125 g/ha, scale 0 to 100, 0 no effect, 100 complete control
How it was run: as §2

[15] = system: Surinam grass (Brachiaria decumbens); experiment: Test B postemergence
How it was run: as §2

[16] = system: pigweed (Amaranthus retroflexus); experiment: Test B postemergence; conditions: Rate 125 g/ha, scale 0 to 100, 0 no effect, 100 complete control
How it was run: as §2

[17] = system: cocklebur (Xanthium strumarium); experiment: Test B postemergence
How it was run: as §2

[18] = system: velvetleaf (Abutilon theophrasti); experiment: Test B postemergence; conditions: Rate 125 g/ha, scale 0 to 100, 0 no effect, 100 complete control
How it was run: as §2

[19] = system: wheat (Triticum aestivum); experiment: Test B postemergence; conditions: Rate 125 g/ha, scale 0 to 100, 0 no effect, 100 complete control
How it was run: as §2

[20] = system: blackgrass (Alopecurus myosuroides); experiment: Test B postemergence
How it was run: as §2

corn (Zea mays) [21] = experiment: Test B postemergence
How it was run: as §2

[22] = Rate 125 g/ha, scale 0 to 100, 0 no effect, 100 complete control
[23] = preemergence, Rate 62 g/ha, scale 0 to 100
[24] = preemergence, Rate 250 g/ha, scale 0 to 100, 0 no effect, 100 complete control
[25] = Rate 500 g/ha, scale 0 to 100, 0 is no effect, 100 is complete control, 13 to 15 days

## CCCC(C)c1ccn(C2CCN(c3cccc(OCC)c3)C2=O)n1 (stereo not shown) [Compound 129]
[1]; [22]
  Plant response rating, Morningglory: 0
[1]; [23]
  Plant response rating, Morningglory: 0
[1]; preemergence
  Plant response rating (0 to 100), Morningglory: 0
Kochia (Kochia scoparia); [22]
  Plant response rating, Kochia: 100
Kochia (Kochia scoparia); [23]
  Plant response rating, Kochia: 0
Kochia (Kochia scoparia); preemergence
  Plant response rating (0 to 100), Kochia: 100
Kochia (Kochia scoparia); [24]
  Plant response rating, Kochia: 100
[2]; [22]
  Plant response rating, Nutsedge: 0
[2]; [23]
  Plant response rating, Nutsedge: 0
[2]; preemergence
  Plant response rating (0 to 100), Nutsedge: 90
[2]; [24]
  Plant response rating, Nutsedge: 50
[3]; [22]
  Plant response rating, Foxtail, Giant: 60
[3]; [23]
  Plant response rating, Foxtail, Giant: 20
[3]; preemergence
  Plant response rating (0 to 100), Foxtail, Giant: 100
[3]; [24]
  Plant response rating, Foxtail, Giant: 80
[4]; [22]
  Plant response rating, Johnsongrass: 70
[4]; [23]
  Plant response rating, Johnsongrass: 20
[4]; preemergence
  Plant response rating (0 to 100), Johnsongrass: 100
[4]; [24]
  Plant response rating, Johnsongrass: 100
[5]; [22]
  Plant response rating, Velvetleaf: 0
[5]; [23]
  Plant response rating, Velvetleaf: 0
[5]; preemergence
  Plant response rating (0 to 100), Velvetleaf: 10
[5]; [24]
  Plant response rating, Velvetleaf: 0
Corn (Zea mays) [6]; [22]
  Plant response rating, Corn: 20
Corn (Zea mays) [6]; [23]
  Plant response rating, Corn: 0
Corn (Zea mays) [6]; preemergence
  Plant response rating (0 to 100), Corn: 30
Corn (Zea mays) [6]; [24]
  Plant response rating, Corn: 30
[7]; [22]
  Plant response rating, Bermudagrass: 100
[7]; [23]
  Plant response rating, Bermudagrass: 100
[7]; preemergence
  Plant response rating (0 to 100 where 0 is no effect and 100 is complete control), Bermudagrass: 100
[7]; [24]
  Plant response rating, Bermudagrass: 100
Sunflower [8]
  Plant response rating, Sunflower: 0
Sunflower [9]
  Plant response rating (0 to 100), Sunflower: 10
[10]
  Plant response rating, Lambsquarters: 100
[11]; [22]
  Plant response rating, Barnyardgrass: 0
[11]; [25]
  Plant response rating, Barnyardgrass: 60
[12]
  Plant response rating, Crabgrass: 0
[13]
  Plant response rating, Foxtail, Giant: 0
Wild oat (Avena fatua)
  Plant response rating, Wild Oat: 0
[14]
  Plant response rating, Morningglory: 0
[15]; [22]
  Plant response rating, Surinam grass: 0
[15]; [25]
  Plant response rating, Surinam grass: 0
[16]
  Plant response rating, Pigweed: 0
[17]; [22]
  Plant response rating, Cocklebur: 0
[17]; [25]
  Plant response rating, Cocklebur: 30
[18]
  Plant response rating, Velvetleaf: 0
[19]
  Plant response rating, Wheat: 0
[20]; [22]
  Plant response rating, Blackgrass: 0
[20]; [25]
  Plant response rating, Blackgrass: 0
Corn (Zea mays) [21]; [22]
  Plant response rating, Corn: 0
Corn (Zea mays) [21]; [25]
  Plant response rating, Corn: 0

## CCCC(C)c1ccn(C2CCN(c3ccc(Cl)c(OC)c3)C2=O)n1 (stereo not shown) [Compound 121]
[1]; [22]
  Plant response rating, Morningglory: 10
[1]; [23]
  Plant response rating, Morningglory: 0
[1]; preemergence
  Plant response rating (0 to 100), Morningglory: 70
[1]; [24]
  Plant response rating, Morningglory: 50
Kochia (Kochia scoparia); [22]
  Plant response rating, Kochia: 100
Kochia (Kochia scoparia); [23]
  Plant response rating, Kochia: 100
Kochia (Kochia scoparia); preemergence
  Plant response rating (0 to 100), Kochia: 100
Kochia (Kochia scoparia); [24]
  Plant response rating, Kochia: 100
[2]; [22]
  Plant response rating, Nutsedge: 0
[2]; [23]
  Plant response rating, Nutsedge: 0
[2]; preemergence
  Plant response rating (0 to 100), Nutsedge: 0
[2]; [24]
  Plant response rating, Nutsedge: 0
[3]; [22]
  Plant response rating, Foxtail, Giant: 100
[3]; [23]
  Plant response rating, Foxtail, Giant: 20
[3]; preemergence
  Plant response rating (0 to 100), Foxtail, Giant: 100
[3]; [24]
  Plant response rating, Foxtail, Giant: 60
[4]; [22]
  Plant response rating, Johnsongrass: 90
[4]; [23]
  Plant response rating, Johnsongrass: 60
[4]; preemergence
  Plant response rating (0 to 100), Johnsongrass: 100
[4]; [24]
  Plant response rating, Johnsongrass: 100
[5]; [22]
  Plant response rating, Velvetleaf: 20
[5]; [23]
  Plant response rating, Velvetleaf: 0
[5]; preemergence
  Plant response rating (0 to 100), Velvetleaf: 100
[5]; [24]
  Plant response rating, Velvetleaf: 100
Corn (Zea mays) [6]; [22]
  Plant response rating, Corn: 20
Corn (Zea mays) [6]; [23]
  Plant response rating, Corn: 0
Corn (Zea mays) [6]; preemergence
  Plant response rating (0 to 100), Corn: 90
Corn (Zea mays) [6]; [24]
  Plant response rating, Corn: 70
[7]; [22]
  Plant response rating, Bermudagrass: 100
[7]; [23]
  Plant response rating, Bermudagrass: 100
[7]; preemergence
  Plant response rating (0 to 100 where 0 is no effect and 100 is complete control), Bermudagrass: 100
[7]; [24]
  Plant response rating, Bermudagrass: 100
Sunflower [8]
  Plant response rating, Sunflower: 30
Sunflower [9]
  Plant response rating (0 to 100), Sunflower: 70
[10]
  Plant response rating, Lambsquarters: 80
[11]; [22]
  Plant response rating, Barnyardgrass: 0
[11]; [25]
  Plant response rating, Barnyardgrass: 90
[12]
  Plant response rating, Crabgrass: 30
[13]
  Plant response rating, Foxtail, Giant: 0
Wild oat (Avena fatua)
  Plant response rating, Wild Oat: 30
[14]
  Plant response rating, Morningglory: 50
[15]; [22]
  Plant response rating, Surinam grass: 30
[15]; [25]
  Plant response rating, Surinam grass: 40
[16]
  Plant response rating, Pigweed: 50
[17]; [22]
  Plant response rating, Cocklebur: 70
[17]; [25]
  Plant response rating, Cocklebur: 100
[18]
  Plant response rating, Velvetleaf: 30
[19]
  Plant response rating, Wheat: 50
[20]; [22]
  Plant response rating, Blackgrass: 0
[20]; [25]
  Plant response rating, Blackgrass: 0
Corn (Zea mays) [21]; [22]
  Plant response rating, Corn: 20
Corn (Zea mays) [21]; [25]
  Plant response rating, Corn: 30
